Test results as given in patent publication US10201158B2, “Plant disease control composition and method for controlling plant disease by application of same” (MITSUI CHEMICALS AGRO, INC., priority 2014, dated 2019).
Several values for one entry are separate records, joined by “and”; a condition that tells them apart may be missing. Equal entries are not always repeated. Where two headings read alike, the source gives them in different places.

Assays:
Phytophthora infestans = type: in vivo; details: treatment concentration 10 ppm, 5 days after inoculation; for Control value: Table 6-1
Sphaerotheca fuliginea = experiment: Cucumber powdery mildew preventive test; type: in vivo; details: in vivo
Method: In a greenhouse, cucumber (variety: Sagamihanshiro) planted in a plastic pot having a diameter of 5 cm was grown to the 3rd to 5th-leaf stage. Spray was carried out in the same manner as in Test example 1, and 3 days after the spray, a conidia suspension prepared from Sphaerotheca fuliginea were inoculated on the leaf surface. After inoculation, the pots were placed in a thermostatic greenhouse (20 to 25° C.), and controlling effects were examined after 7 days from the inoculation. In the examination, a ratio of lesion area occupied per one leaf of cucumber was determined according to the same index as in Test example 1, and the control value and the theoretical value according to Colby's formula were similarly calculated.
Wettable powder prepared in compliance with Comparative Preparation Example 4 containing the compounds indicated in Table 7-9 were sprayed to the cucumber leaves, a conidiospore suspension prepared from Sphaerotheca fuliginea was inoculated onto the plants, and the controlling effects were examined in a manner similar to Test Example 6.

Blumeria graminis = experiment: Barley powdery mildew preventive test; type: in vivo; details: Table 4; treatment concentration 10 ppm; 8 days after inoculation
Method: Barley plants (variety: Akashinriki) planted in plastic pots having a diameter of 5 cm were grown indoors to the second to fourth leaf stage. Wettable powder containing the compounds indicated in Table 4 were sprayed in the same manner as in Test Example 1, and after the chemical had dried, conidia of Blumeria graminis was inoculated onto the leaves. Following inoculation, the pots were transferred to a constant-temperature chamber (20° C. to 25° C.), and control effects were examined 8 days after inoculation.

[1] = tested on: Pseudoperonospora cubensis; experiment: Cucumber downy mildew preventive test; type: in vivo; details: Table 8; treatment concentration 10 ppm; 7 days after inoculation
Method: In a greenhouse, cucumber (variety: Sagamihanshiro) planted in a plastic pot having a diameter of 5 cm was grown to the 3rd to 5th-leaf stage. Spray was carried out in the same manner as in Test example 1, and after drying the chemical liquid, the pots were transferred into a greenhouse. After 3 days from the spray, a zoosporangium suspension of Pseudoperonospora cubensis was inoculated. After inoculation, the pots were placed in a high-humidity chamber (20 to 25° C.), transferred into a greenhouse on the next day, and controlling effects were examined after 7 days from the inoculation. A ratio of lesion area occupied per one leaf of cucumber was determined according to the same index as in Test example 1, and the control value and the theoretical value according to Colby's formula were similarly calculated.

Botrytis cinerea = details: in vivo
Puccinia recondita = experiment: Wheat brown rust preventive test; type: in vivo; details: Table 5; treatment concentration 10 ppm; 8 days after inoculation
Method: Wheat plants (variety: Norin 61 gou) planted in plastic pots having a diameter of 5 cm were grown indoors to the second to fourth leaf stage. Wettable powder containing the compounds indicated in Table 5 were sprayed in the same manner as in Test Example 1, and after the chemical had dried, a conidia suspension of Puccinia recondita was inoculated onto the leaves. Following inoculation, the pots were placed in the humidified chamber of an artificial inoculation room (20° C. to 23° C.), removed on the following day and then transferred to a greenhouse. Control effects were examined 8 days after inoculation. During the examination, the number of lesions on five leaves of the wheat plants was determined in accordance with the following incidence degree indicators, and control values and theoretical values as determined according to Colby's formula were calculated in the same manner as in Test Example 1.

Pyricularia oryzae = type: in vivo; details: treatment concentration 10 ppm; for Control value: Table 3-1
[2] = Table 3-5 (Comparative Example 2)

## CC1(C)N=C(c2cnc3ccccc3c2)c2cccc(F)c2C1(C)C [Compound A, 3-(5-fluoro-3,3,4,4-tetramethyl-3,4-dihydroisoquinolin-1-yl)quinoline]
Phytophthora infestans
  Control value: 8
Phytophthora infestans; Table 6-2
  Preventive value: 33
Phytophthora infestans; Table 6-3
  Preventive value: 47
Sphaerotheca fuliginea
  Control value: 33 and 17
  Preventive value: 40
Blumeria graminis
  Control value: 6
[1]
  Preventive value: 27
Botrytis cinerea
  Control value: 64
  Preventive value: 77 and 70 and 73 and 67 and 40
Puccinia recondita
  Control value: 11
Pyricularia oryzae
  Control value: 67
Pyricularia oryzae; Table 3-2
  Preventive value: 73
Pyricularia oryzae; Table 3-3
  Preventive value: 73
Pyricularia oryzae; Table 3-4
  Preventive value: 67
Pyricularia oryzae; [2]
  Preventive value: 67

## CC1(C)N=C(c2cnc3ccccc3c2)c2ccccc2C1(F)F [Compound B, 3-(4,4-difluoro-3,3-dimethyl-3,4-dihydroisoquinolin-1-yl)quinoline]
Phytophthora infestans
  Control value: 13
Phytophthora infestans; Table 6-2
  Preventive value: 33
Phytophthora infestans; Table 6-3
  Preventive value: 40
Sphaerotheca fuliginea
  Control value: 33 and 17
  Preventive value: 33 and 40
Blumeria graminis
  Control value: 6
[1]
  Preventive value: 23
Botrytis cinerea
  Control value: 57
  Preventive value: 77 and 70 and 73 and 80 and 67 and 40
Puccinia recondita
  Control value: 6
Pyricularia oryzae
  Control value: 67
Pyricularia oryzae; Table 3-2
  Preventive value: 73
Pyricularia oryzae; Table 3-3
  Preventive value: 73
Pyricularia oryzae; Table 3-4
  Preventive value: 67
Pyricularia oryzae; [2]
  Preventive value: 67

## CC1(C)N=C(c2cnc3ccccc3c2)c2cccc(F)c2C1(F)F [Compound C, 3-(4,4,5-trifluoro-3,3-dimethyl-3,4-dihydroisoquinolin-1-yl)quinoline]
Phytophthora infestans
  Control value: 4
Phytophthora infestans; Table 6-2
  Preventive value: 40
Phytophthora infestans; Table 6-3
  Preventive value: 37
Sphaerotheca fuliginea
  Control value: 33 and 17
  Preventive value: 33 and 40
Blumeria graminis
  Control value: 6
[1]
  Preventive value: 17
Botrytis cinerea
  Control value: 57
  Preventive value: 73 and 60 and 70 and 77 and 67 and 40
Puccinia recondita
  Control value: 8
Pyricularia oryzae
  Control value: 67
Pyricularia oryzae; Table 3-2
  Preventive value: 73
Pyricularia oryzae; Table 3-3
  Preventive value: 73
Pyricularia oryzae; Table 3-4
  Preventive value: 67
Pyricularia oryzae; [2]
  Preventive value: 67
